Test results: patent US12618044B2, “Specification of functional cranial placode derivatives from human pluripotent stem cells” (MEMORIAL SLOAN-KETTERING CANCER CENTER, priority 2013, dated 2026)
Counter-ions that a name gives are not always drawn.

Assays:
Type in all cases: cell-based, human
hESC = assay: Neural induction of hESC by dual SMAD inhibition (PAX6 expression); conditions: 10 uM to 30 nM, each added to 10 uM of SB431542
Experimental: In one embodiment, the present invention contemplates a method establishing an even cell distribution for inducing homogenous neural differentiation of hESCs. To this end, undifferentiated hESC were dissociated into single cells and re-plated onto Matrigel coated dishes in conditioned medium supplement with ROCK inhibitor, Y-27632 (Wananabe et al., 2007). After 72 hours, cells were switched from hESC conditions to knock-out serum replacement medium (KSR) containing either Noggin, SB4315242, or both factors and allowed to differentiate for a total of 11 days (FIG. 1A). […] Neural induction was monitored by expression of PAX6, an early marker of neuroectodermal differentiation (Callaerts, et al., Annu Rev Neurosci 20:483 (1997).
hESC cultures were disaggregated using accutase for 20 minutes, washed using hESC media and pre-plated on gelatin for 1 hour at 37° C. in the presence of ROCK inhibitor to remove MEFs. The nonadherent hESC were washed and plated on matrigel at a density of 10,000-25,000 cells/cm^2 on matrigel (BD) coated dishes in MEF conditioned hESC media (CM) spiked with 10 ng/mL of FGF-2 and ROCK-inhibitor. […] The ROCK inhibitor was withdrawn, and hESC were allowed to expand in CM for 3 days or until they were nearly confluent. […]

[1] = tested on: NSB derived neural precursor cells; assay: Ventral patterning of NSB derived neural precursor cells by FP conditioned media; conditions: with CM from hESC derived FP
Excerpt: The FP has important functional roles during development in neural patterning and axonal path finding (Jessell, 2000). To assess the functional properties of hESCs derived FP conditioned media was isolated at days 9 and 11 and tested for expression of Netrin-1 in the medium using ELISA (FIG. 17A). Under normal NSB conditions, Netrin-1 is detectable at Day 9 and decreases at Day 11 while in the NSB+SHH condition, there is a 3.5 fold increase in Netrin-1 levels, increasing at Day 11 (FIG. 17B). SHH is a critical patterning factor secreted by FP cells and specifying ventral cell types in a dose-dependent manner. To test if hESCs derived FP secretes factors that can specify ventral precursor domains, conditioned media (CM) was isolated at Days 9 and 11 of the differentiation. At Day 6, exogenous SHH was removed and cultures were washed to eliminate any exogenously added SHH from the medium. Naïve neural progenitor cells were isolated at Day 11 of the control (NSB) protocol and cultured with either NSB CM or FP CM. After Day 5 of culture in the presence of CM, the inventors probed for the expression of ventral precursor markers and expression of the SHH responsive gene GLI2. […] Increase in the expression of ventral markers was confirmed at the level of protein (FIG. 17D).

SIX1::GFP cells = assay: PIP-E6 pituitary induction and hormone release
Experimental: Induction of anterior pituitary gland cells: Pituitary placode cells were induced by culturing SIX1::GFP cells according to the PIP-E6 protocol, wherein pituitary factors SHH, FGF8, FGF10 and/or hypothalamus CM were supplemented in the culture media from days 6-15.
Induction of anterior pituitary gland cells: SIX1::GFP hPSCs were cultured according to a modified PIP-E6 protocol, wherein pituitary factors such as FGF8, FGF10 or SHH, etc., were included in the culture media from days 6-14. Cells were sorted based on expression of SIX1::GFP, and were replated at a concentration of 10,000 cells/cm^2 on PO/L/F, and were incubated with small molecule/growth factors for 2 weeks. (FIG. 68). […] (FIG. 69).

pre-placodal cells = assay: Pituitary placode specification under modified PIP
Excerpt: Further treatment with agonists for SHH signaling (FIG. 39A) at the pre-placode stage (day 7-11) induced expression of the oral ectoderm marker SIX6 and PITX1 (FIG. 38B), master regulators of pituitary gland development (Tremblay et al., 1998).
Endocrine cells of the anterior pituitary gland are derived from three main precursors lineages (Scully and Rosenfeld, 2002). […] Induction of PIT1 and GATA2 precursor lineages was less efficient but was increased following treatment with the γ-secretase inhibitor DAPT (FIGS. 38F, 38G).
Differentiation of hormone producing cells: During placode induction protocol, Sonic Hedgehog (C25II-R&D 100 ng/ml) and Purmorphamine (Stemgent, 1 μM) were added between days 7-11 of PIP to promote differentiation towards pituitary placode anlage. The cells were maintained without passaging in N2 medium and treated with additional factors such as DAPT (Tocris, 10 μM), between day 13 and day 17 of differentiation to induce PIT1+ and GATA2+ precursor cells (see FIG. 39A).

c1cc(-c2cnn3cc(-c4ccc(OCCN5CCCCC5)cc4)cnc23)ccn1 [Dorsomorphin, 6-[4-[2-(1-Piperidinyl)ethoxy]phenyl]-3-(4-pyridinyl)-pyrazolo[1,5-a]pyrimidine dihydrochloride]
efficiency based on the percentage of PAX6+ cells, versus Noggin/SB431542 (hESC): not as high

CC1=C2C[C@H]3[C@@H](CC=C4C[C@@H](O)CC[C@@]43C)[C@@H]2CC[C@]12O[C@@H]1C[C@H](C)CN[C@H]1[C@H]2C [cyclopamine]
NKX2.1, NKX6.1, and GLI2 expression [1]: significantly reduced

C[C@H](NC(=O)Cc1cc(F)cc(F)c1)C(=O)N[C@H](C(=O)OC(C)(C)C)c1ccccc1 [DAPT]
proportion of each of the three pituitary precursor lineages (SIX1::GFP cells): modulated | Induction of PIT1 and GATA2 precursor lineages (pre-placodal cells): increased
